Experimental findings from PubChem BioAssay (NCI) are described below.

Among the test systems are A498 renal; OVCAR-3 ovarian; SK-MEL-28 melanoma; HT29 colon; K-562 leukemia; NCI-H522 lung; TK-10 renal; RXF 393 renal; U251 CNS; HOP-92 NSCLC.
Holding throughout (assay): NCI anticancer screen, dose series, 48 h

The structures appear in SMILES notation.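 Values below derive from 48-hour exposures of cells grown in 96-well plates, with endpoints linearly interpolated between the two concentrations bracketing the appropriate inhibition level. The concentration for full growth arrest is given as TGI.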

In the case of `C[C@@H]1C(=O)C[C@H]2C(C)(C)CCC[C@]2(C)[C@@]1(O)CCc1ccoc1`, the TGI with A498 renal, in the assay with OVCAR-3 ovarian, in the assay with SK-MEL-28 melanoma, in the assay with HT29 colon, in the assay on K-562 leukemia and in the assay with NCI-H522 lung was above 100 µM each time. Moreover, the TGI in the assay on TK-10 renal, with RXF 393 renal, in the assay on U251 CNS and with HOP-92 NSCLC was above 100 µM throughout.
With `C=CCN(CCNS(=O)(=O)c1ccc(C)cc1)S(=O)(=O)c1ccc(C)cc1`, the TGI is 26.8 µM in the assay with A498 renal; above 100 µM in the assay on OVCAR-3 ovarian; above 100 µM in the assay on SK-MEL-28 melanoma; above 100 µM with HT29 colon; above 100 µM in the assay with K-562 leukemia; above 100 µM in the assay on NCI-H522 lung. For the same compound, the TGI with TK-10 renal, in the assay with RXF 393 renal, with U251 CNS and in the assay with HOP-92 NSCLC was above 100 µM in each case.
For `O=C(NC(=O)c1cc(-c2ccccc2)n[nH]1)c1ccccc1`, the TGI in the assay with A498 renal, in the assay on OVCAR-3 ovarian, with SK-MEL-28 melanoma, with HT29 colon, in the assay with K-562 leukemia and with NCI-H522 lung was above 100 µM each time. Moreover, the TGI with TK-10 renal, in the assay on RXF 393 renal, with U251 CNS and with HOP-92 NSCLC was above 100 µM each time.
For the compound `O=[N+]([O-])C(/C=N/Nc1ccccc1)/C=N/Nc1ccccc1`, the TGI with A498 renal, with OVCAR-3 ovarian, with SK-MEL-28 melanoma, in the assay with HT29 colon, with K-562 leukemia and in the assay with NCI-H522 lung was above 100 µM throughout. Moreover, the TGI with TK-10 renal, with RXF 393 renal, with U251 CNS and with HOP-92 NSCLC was above 100 µM throughout.
Regarding `O=C1CC[C@@]2(O)[C@H]3Cc4ccc(-c5ccccc5)c5c4[C@@]2(CCN3CC2CC2)[C@H]1O5`, the TGI is 36.6 µM in the assay on A498 renal; 33.6 µM with OVCAR-3 ovarian; above 100 µM in the assay on SK-MEL-28 melanoma; 27.8 µM with HT29 colon; 63.7 µM in the assay on K-562 leukemia; 30.1 µM in the assay with NCI-H522 lung. Further, the TGI in the assay with TK-10 renal was 36.4 µM; in the assay with RXF 393 renal, 23.7 µM; with U251 CNS, 32.1 µM; in the assay with HOP-92 NSCLC it was 57.4 µM.
Consider `COc1cc2c3c(n(C)c(=O)c2cc1OC)-c1cc2c(cc1/C3=C\CCCI)OCO2`, for which the TGI in the assay with A498 renal was above 93.3 µM; with OVCAR-3 ovarian, above 100 µM; in the assay with SK-MEL-28 melanoma it was above 100 µM; in the assay with HT29 colon it was above 100 µM; with K-562 leukemia, above 100 µM; with NCI-H522 lung it was above 100 µM. Besides, the TGI with TK-10 renal was above 85.6 µM; in the assay with RXF 393 renal it was above 100 µM; in the assay on U251 CNS, above 100 µM; in the assay on HOP-92 NSCLC it was above 100 µM.
For the compound `Cc1cc(S(=O)(=O)Nc2nc3ccccc3nc2-c2ccc(Cl)cc2)c(S)cc1Cl`, the TGI worked out at 30.7 µM in the assay with A498 renal; 29.9 µM in the assay on OVCAR-3 ovarian; 31 µM in the assay with SK-MEL-28 melanoma; 31.4 µM in the assay with HT29 colon; 70.6 µM in the assay with K-562 leukemia; 28.3 µM with NCI-H522 lung. Moreover, the TGI with TK-10 renal came to 63.7 µM; in the assay on RXF 393 renal it was 46.6 µM; with U251 CNS, 34 µM; in the assay on HOP-92 NSCLC it was 46.9 µM.
Consider `COc1ccc(N=NC(=O)NC(CC(C)C)C(N)=O)cc1` (stereo not given), for which the TGI is above 31.6 µM in the assay on A498 renal; above 100 µM in the assay on OVCAR-3 ovarian; above 100 µM in the assay with SK-MEL-28 melanoma; above 100 µM in the assay on HT29 colon; above 100 µM in the assay with K-562 leukemia; above 100 µM in the assay with NCI-H522 lung. The TGI in the assay on TK-10 renal was above 31.6 µM; with RXF 393 renal, above 31.6 µM; in the assay with U251 CNS it was above 100 µM; in the assay with HOP-92 NSCLC, above 31.6 µM.
As to `Cn1ncc2c(Cl)ncnc21`, the TGI with A498 renal, in the assay on OVCAR-3 ovarian, with SK-MEL-28 melanoma, in the assay with HT29 colon, in the assay with K-562 leukemia and with NCI-H522 lung was above 100 µM in each case. Also, the TGI in the assay with TK-10 renal, in the assay on RXF 393 renal, in the assay on U251 CNS and with HOP-92 NSCLC was above 100 µM each time.
Consider `NC1=Nc2cc(Cl)ccc2Sc2nc3ccccc3n21`, for which the TGI in the assay with A498 renal, in the assay on OVCAR-3 ovarian, in the assay with SK-MEL-28 melanoma, in the assay with HT29 colon, in the assay on K-562 leukemia and with NCI-H522 lung was above 100 µM in each case. For the same compound, the TGI in the assay with TK-10 renal was above 100 µM; in the assay on RXF 393 renal, above 100 µM; in the assay on U251 CNS, above 100 µM; in the assay with HOP-92 NSCLC, 71 µM.
Take `CC(C)(C)OC(=O)CN1CCNCCN(CC(=O)OC(C)(C)C)CCNCC1`: the TGI with A498 renal, in the assay on OVCAR-3 ovarian, in the assay with SK-MEL-28 melanoma, with HT29 colon, in the assay on K-562 leukemia and in the assay on NCI-H522 lung was above 100 µM each time. The TGI in the assay on TK-10 renal, with RXF 393 renal, in the assay on U251 CNS and in the assay on HOP-92 NSCLC was above 100 µM throughout.
`Cc1nc(C)c(N2CCNCC2)c(=O)[nH]1`: the TGI with A498 renal, with OVCAR-3 ovarian, with SK-MEL-28 melanoma, with HT29 colon, in the assay on K-562 leukemia and with NCI-H522 lung was above 100 µM throughout. In addition, the TGI in the assay on TK-10 renal, in the assay on RXF 393 renal, with U251 CNS and in the assay with HOP-92 NSCLC was above 100 µM throughout.
